Values after ≈ are worked out from the molar mass of the structure shown. Read-outs that look alike come from different tables or passages of the source.
Tests used:
[1] = physchem; conditions: water, thermodynamic from solid
[2] = Hygroscopicity test, condition 2 (humidity chamber, weight change); format: physicochemical; conditions: for Weight change (%): dry before (change on drying to 0 hr weight)
[3] = Hygroscopicity test, condition 3 (dynamic vapor sorption, 0 to 90 to 0% RH); format: physicochemical; conditions: DVS, 25° C.
Method: Measurement were taken from 0 to 90 to 0% RH at 25° C. with 10% RH per step with equilibration set to dm/dt+0.01%/min for 10 min or 180 min/step.

[4] = DVS, 0 to 70 to 0% RH, 25° C.
Method: Measurement were taken from 0 to 70 to 0% RH at 25° C. with 10% RH per step with equilibration set to dm/dt+0.01%/min for 10 min or 180 min/step.

[5] = 70-75% RH, room temperature, 3 days

| Weight ([2]; 30° C., 75% RH, 0 hr) | Weight ([2]; 30° C., 75% RH, 1 hr) | Weight change (%), water absorbed ([2]; 30° C., 75% RH, 1 hr) | Weight ([2]; 30° C., 75% RH, 2 hr) | Weight change (%), water absorbed ([2]; 30° C., 75% RH, 2 hr) | Weight ([2]; 30° C., 75% RH, 3 hr) | Weight change (%), water absorbed ([2]; 30° C., 75% RH, 3 hr) | Weight ([2]; 30° C., 75% RH, 5 hr) | Weight change (%), water absorbed ([2]; 30° C., 75% RH, 5 hr) | Weight ([2]; 30° C., 75% RH, 24 hr) | Weight change (%), water absorbed ([2]; 30° C., 75% RH, 24 hr) | Weight ([2]; 30° C., 75% RH, 48 hr) | Weight change (%), water absorbed ([2]; 30° C., 75% RH, 48 hr) | Weight ([2]; 30° C., 75% RH, 72 hr) | Weight change (%), water absorbed ([2]; 30° C., 75% RH, 72 hr) | Outward (appearance) ([2]; dry before) | Weight ([2]; dry before) | Weight change (%) [2] | Structure (SMILES) | further results |
| --- | --- | --- | --- | --- | --- | --- | --- | --- | --- | --- | --- | --- | --- | --- | --- | --- | --- | --- | --- |
| 0.1375 g | 0.1585 g | (+15.3%) | 0.1942 g | (+41.2%) | 0.2146 g | (+56.1%) | 0.2403 g | (+74.8%) | 0.2884 g | (+109.7%) | 0.2885 g | (+109.8%) | 0.2885 g | (+109.8%) | White | 0.1375 g | (−0%) | CNCC(=O)O [N-MG, N-methylglycine, reference compound] | solubility [1]: 660 mg/mL (≈ 7410 mM); Outward (appearance) ([2]; 30° C., 75% RH, 1 hr): 90%; Outward (appearance) ([2]; 30° C., 75% RH, 3 hr): Liquid; Change In Mass (%) ([3]; RH 0%): 0.0%; Change In Mass (%) ([3]; RH 10%): 0.0%; Change In Mass (%) ([3]; RH 20%): 0.0%; Change In Mass (%) ([3]; RH 30%): 0.0%; Change In Mass (%) ([3]; RH 40%): 0.0%; Change In Mass (%) ([3]; RH 50%): 0.0%; Change In Mass (%) ([3]; RH 60%): 0.0%; Change In Mass (%) ([3]; RH 70%): 38.6%; Change In Mass (%) ([3]; RH 80%): 87.4%; Change In Mass (%) ([3]; RH 90%): 130.9% |
| 0.1432 g | 0.1437 g | (+0.3%) | 0.1437 g | (+0.3%) | 0.1439 g | (+0.4%) | 0.1439 g | (+0.4%) | 0.1440 g | (+0.5%) | 0.1440 g | (+0.5%) | 0.1441 g | (+0.6%) | White | 0.1434 g | (−0.1%) | CNCC(=O)O.O=C(O)C(O)C(O)C(=O)O [N-MG/L-TA = 1/1, N-methylglycine:L-tartaric acid (1:1) co-crystal] | Weight change (%), water absorbed ([2]; 30° C., 75% RH, 5 hr, listed as N-methylglycine:L-tartaric acid co-crystal): 0.4%; Outward (appearance) ([2]; 30° C., 75% RH, 72 hr): remained as white powder; Weight change (%), water absorbed ([2]; 30° C., 75% RH, 72 hr, listed as 1:1 N-methylglycine:L-tartaric acid co-crystal): 0.6%; Hygroscopicity comparison ([2]; 30° C., 75% RH, listed as 1:1 N-methylglycine:L-tartaric acid co-crystal): much less hygroscopic than 2:1 N-methylglycine:L-tartaric acid co-crystal; Hygroscopicity comparison [4]: less hygroscopic than N-methylgycine or L-tartaric acid individually; Appearance after exposure to high humidity [5]: remained as fine white powder; Hygroscopicity comparison [5]: much less hygroscopic than the 2:1 co-crystal |

— US10765651B2, “Co-crystals of substituted glycine and uses thereof” (SyneuRx International (Taiwan) Corp., priority 2017, dated 2020)
